“Also recorded” adds a separate entry of the source.
Assays:
frataxin expression = details: Friedreich's ataxia; cited from earlier work
HDAC = details: cited from earlier work
MEF2 = experiment: in vitro binding, method not stated
HDAC4:MEF2 interaction = biological target: T1, HDAC4:MEF2 interaction (Homo sapiens, UniProt Q14814); experiment: Mammalian two-hybrid luciferase reporter assay (GAL4-MEF2D / HDAC4-VP16 / GAL4Luc); type: cell-based
T1 sequence (Q14814 1-521): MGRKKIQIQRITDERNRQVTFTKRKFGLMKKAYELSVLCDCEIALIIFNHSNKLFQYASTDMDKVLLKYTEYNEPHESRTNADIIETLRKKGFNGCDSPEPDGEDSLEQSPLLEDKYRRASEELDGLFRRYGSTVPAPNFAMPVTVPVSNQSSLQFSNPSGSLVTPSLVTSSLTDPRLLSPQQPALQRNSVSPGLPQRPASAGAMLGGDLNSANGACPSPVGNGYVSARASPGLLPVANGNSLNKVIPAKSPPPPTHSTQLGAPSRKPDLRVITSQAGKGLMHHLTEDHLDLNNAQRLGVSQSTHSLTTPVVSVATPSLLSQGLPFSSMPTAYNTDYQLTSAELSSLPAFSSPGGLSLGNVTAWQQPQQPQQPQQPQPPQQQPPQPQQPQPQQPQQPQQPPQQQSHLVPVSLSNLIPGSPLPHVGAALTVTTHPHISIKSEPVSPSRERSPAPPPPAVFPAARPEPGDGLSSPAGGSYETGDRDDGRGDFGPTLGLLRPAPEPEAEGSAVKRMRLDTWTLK
From the text: In a preferred embodiment, there is disclosed herein a two-hybrid system based assay includes a binding domain fused with a bait, an activating domain fused with a prey, and a reporter gene; and determining a reporter signal level.
A series of MEF2-dependent luciferase reporter assays with transiently transfected MEF2D, HDAC4 and the co-activator p300 were used initially to screen various compounds. But these assays gave weak signal and high frequency of false positives, probably due to the complex transcription activation mechanisms of MEF2 and interference from endogenous factors. Through these observations, it was discovered that a highly sensitive and specific assay that can recapitulate the molecular interaction between HDAC4 and MEF2 inside cells is essential.
Taking advantage of the structural insights, in addition to the MEF2D L67D mutant mentioned above, we introduced a number mutations in HDAC4 that had been previously shown to disrupt HDAC4:MEF2 interaction in vitro. These mutations also diminished the luciferase signal in the cell-based assay (FIG. 3b).

MEF2A (1-95) = biological target: T2, MEF2A (1-95) (Homo sapiens, UniProt Q02078); experiment: Surface plasmon resonance (Biacore T-100) competition: MEF2A (1-95) binding to immobilized HDAC4 (aa 155-220); details: for binding of MEF2A to immobilized HDAC4 after incubation with compound: Biacore, increasing concentrations (FIG. 5)
T2 construct: purified MEF2A (1-95) was used as the analyte
T2 sequence (Q02078 1-95): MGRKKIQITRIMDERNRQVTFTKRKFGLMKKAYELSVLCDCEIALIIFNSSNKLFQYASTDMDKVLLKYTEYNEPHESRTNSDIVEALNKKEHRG
From the text: Here HDAC4 (aa 155-220) was immobilized on a CM5 sensor chip and purified MEF2A (1-95) was used as the analyte. The binding of MEF2A to HDAC4 at various concentrations generated a series of well-defined sensorgrams (data not shown). […] These technical limitations made it difficult to obtain a quantitative binding constant.

[1] = test system: acetylation of histone but not tubulin; details: cited from earlier work
GAL4-VP16 = details: 10 μM; non-specific inhibition

Molecule: O=C(CCCCCCC(=O)Nc1ccccc1)NO [SAHA, Vorinostat]
- frataxin expression / induction (frataxin expression): no effect; also recorded: did not have this type of activity

Molecule: CC(/C=C/C(=O)NO)=C\[C@@H](C)C(=O)c1ccc(N(C)C)cc1 [trichostatin A (TSA), trichostatin A]
- IC50 HDAC inhibition (HDAC): low nanomolar range
- frataxin expression / induction (frataxin expression): no effect

Molecule: wild type HDAC4 (in vitro binding) (from UniProt P56524 155-220)
- Kd (MEF2): 470 nM

Molecule: Nc1ccccc1NC(=O)CCCCCCC(=O)Nc1ccccc1 [BML-210, suberoylanilide orthoaminoanilide]
- normalized luciferase activity in MEF2-HDAC luciferase reporter assay (HDAC4:MEF2 interaction; 24 hrs after treatment (FIG. 4)): decreased in a dose dependent manner
- direct binding to MEF2 by Biacore (MEF2A (1-95)): beyond the detection limit
- binding of MEF2A to immobilized HDAC4 after incubation with compound (MEF2A (1-95)): bind MEF2 competitively with HDAC4; also recorded: competitive inhibition

Molecule: Cc1ccc(NC(=O)CCCCCC(=O)Nc2ccccc2N)cc1 [compound 106, N^1-(2-aminophenyl)-N^7-p-tolylheptanediamide]
- frataxin expression / induction (frataxin expression): very active

Molecule: HDAC4 mutant Val180Lys (in vitro binding) (from UniProt P56524 155-220)
- Kd (MEF2): 810 nM
- weakening of binding against wild type HDAC4 (MEF2): 60%

Molecule: Nc1ccccc1NC(=O)CCCCCC(=O)Nc1ccccc1 [PAOA, pimeloylanilide orthoaminoanilide]
- selective induction of histone versus tubulin acetylation [1]: selectively induce acetylation of histone but not tubulin
- expression of HDAC4-VP16 (HDAC4:MEF2 interaction): did not affect
- decrease of reporter signal driven by GAL4-MEF2D and HDAC4-VP16 (HDAC4:MEF2 interaction; 10 μM): about 26 fold
- inhibition of the reporter signal in the mammalian two-hybrid assay (HDAC4:MEF2 interaction; GAL4-MEF2D/HDAC4-VP16, Hela cells): inhibited the reporter signal in a dose dependent manner
- IC50 (HDAC4:MEF2 interaction; based on the mammalian two-hybrid assay): ~5000 nM
- Kd (HDAC4:MEF2 interaction; estimated assuming equilibrium HDAC4 concentration ~0.5 μM and HDAC4:MEF2 Kd 0.47 μM, read-out: Kd for binding to MEF2 (estimated)): ~5000 nM
- binding of MEF2A to immobilized HDAC4 after incubation with compound (MEF2A (1-95)): dose dependent decrease; also recorded: binds MEF2 competitively with HDAC4
- reduction of reporter signal driven by GAL4-VP16 (GAL4-VP16): 5.6 fold
- frataxin expression / induction (frataxin expression): enhance the expression of frataxin

— patent US8697729B2, “Small molecules modulator of epigenetic regulation and their therapeutic applications” (University of Southern California, priority 2008, dated 2014)
